Source: ChEMBL document CHEMBL5532646, “Discovery of 4-(N-dithiobenzyl piperazine)-1,8-naphthalimide as a potent multi-target antitumor agent with good efficacy, limited toxicity, and low resistance” (Eur J Med Chem, 2024)
The source made the active and inactive calls. The calls are words filed in the database; no cut-off is given here.

Assays:
[1] = system: T-24; experiment: Induction of ferroptosis in human T24 cells assessed as reduction in mitochondrial cristae at 5 uM incubated for 24 hrs by TEM analysis; format: functional, cell-based
[2] = system: T-24; experiment: Induction of cell cycle arrest at S phase in human T24 cells at 5 uM incubated for 24 hrs by flow cytometry (reference value: 12.39 %); format: functional
[3] = Toxicity in nude mouse model xenografted with human HepG2 cells assessed as pathological change in spleen at 15 mg/kg, ip administered once every two days for 21 days; format: organism-based; details: in vivo, 504 h, time 21 day
[4] = system: T-24; experiment: Induction of autophagy in human T24 cells assessed as increase in LC-3 level at 2 to 8 uM incubated for 24 hrs by Western blot analysis; format: functional, cell-based; details: dose 2-8 µM
[5] = system: T-24; experiment: Induction of apoptosis in human T24 cells assessed as increase in Bak level at 2 to 8 uM incubated for 24 hrs by Western blot analysis; format: functional, cell-based; details: dose 2-8 µM
[6] = system: T-24; experiment: Upregulation of ERK1/2 phosphorylation in human T24 cells incubated for 24 hrs by Western blot analysis; format: functional, cell-based; details: dose 2-8 µM
[7] = system: HepG2; experiment: Antiproliferative activity against human HepG2 cells incubated for 48 hrs by MTT assay; format: functional, cell-based; details: HepG2, 48 h
[8] = system: T-24; experiment: Induction of apoptosis in human T24 cells assessed as increase in cleaved PARP level at 2 to 8 uM incubated for 24 hrs by Western blot analysis; format: functional, cell-based; details: dose 2-8 µM
[9] = system: T-24; experiment: Induction of ferroptosis in human T24 cells assessed as increase in lipid peroxide level at 5 uM incubated for 24 hrs by fluorescence based analysis; format: functional, cell-based
[10] = Toxicity in nude mouse model xenografted with human T24 cells assessed as pathological change in lung at 15 mg/kg, ip administered once every two days for 21 days; format: organism-based, T-24; details: in vivo, 504 h, time 21 day
[11] = system: SK-OV-3; experiment: Antiproliferative activity against human SK-OV-3 cells incubated for 48 hrs by MTT assay; format: functional, cell-based; details: SK-OV-3, 48 h
[12] = system: T-24; experiment: Antitumor activity against human T24 cells assessed as effect on MAPK signaling pathway at 5 uM incubated for 24 hrs by TMT/iTRAQ analysis; format: functional, cell-based
[13] = system: T-24; experiment: Induction of ferroptosis in human T24 cells assessed as increase in ROS level at 5 uM incubated for 24 hrs by DCFH-DA probe based analysis; format: functional, cell-based
[14] = system: T-24; experiment: Anti-migratory activity against human T24 cells incubated upto 48 hrs by wound healing assay; format: functional, cell-based
[15] = system: T-24; experiment: Inhibition of cell proliferation of human T24 cells at 1 to 5 uM incubated for 7 days by colony formation assay; format: functional, cell-based; details: dose 1-5 µM, time 7.0 day
[16] = system: T-24; experiment: Induction of cell cycle arrest in human T24 cells assessed as decrease in MCM5 level at 2 to 5 uM by Western blot analysis; format: functional, cell-based; details: dose 2-5 µM
[17] = system: A549; experiment: Antiproliferative activity against human A549 cells incubated for 48 hrs by MTT assay; format: functional, cell-based
[18] = Toxicity in nude mouse model xenografted with human HepG2 cells assessed as pathological change in heart at 15 mg/kg, ip administered once every two days for 21 days; format: organism-based; details: in vivo, 504 h, time 21 day
[19] = system: T-24; experiment: Induction of ferroptosis in human T24 cells assessed as increase in iron level at 5 uM incubated for 24 hrs by FerrOrange probe based confocal microscopy; format: functional, cell-based
[20] = system: T-24; experiment: Antiproliferative activity against human T24 cells incubated for 48 hrs by MTT assay; format: functional, cell-based; details: T-24, 48 h
[21] = system: T-24; experiment: Induction of ferroptosis in human T24 cells assessed as increase in FACL4 level at 5 uM incubated for 24 hrs by Western blot analysis; format: functional, cell-based
[22] = system: T-24; experiment: Anti-migratory activity against human T24 cells at 1 to 10 uM incubated upto 48 hrs by wound healing assay; format: functional, cell-based; details: dose 1-10 µM
[23] = system: HK-2; experiment: Antiproliferative activity against human HK-2 cells incubated for 48 hrs by MTT assay; format: functional, cell-based; details: HK-2, 48 h
[24] = system: T-24; experiment: Anti-migratory activity against human T24 cells at 5 uM incubated upto 48 hrs in presence of FR180204 by wound healing assay; format: functional, cell-based
[25] = system: T-24; experiment: Induction of cell cycle arrest at G2/M phase in human T24 cells at 5 uM incubated for 24 hrs by flow cytometry (reference value: 12.30 %); format: functional
[26] = system: T-24; experiment: Induction of cell cycle arrest at G2/M phase in human T24 cells at 2 uM incubated for 24 hrs by flow cytometry (reference value: 12.30 %); format: functional
[27] = system: A549/CDDP; experiment: Antiproliferative activity against human A549/DDP cells incubated for 48 hrs by MTT assay; format: functional, cell-based
[28] = Toxicity in nude mouse model xenografted with human HepG2 cells assessed as pathological change in liver at 15 mg/kg, ip administered once every two days for 21 days; format: organism-based; details: in vivo, 504 h, time 21 day
[29] = Toxicity in nude mouse model xenografted with human T24 cells assessed as pathological change in spleen at 15 mg/kg, ip administered once every two days for 21 days; format: organism-based, T-24; details: in vivo, 504 h, time 21 day
[30] = system: T-24; experiment: Induction of cell cycle arrest at G1/S phase in human T24 cells incubated for 24 hrs by flow cytometry; format: functional, cell-based; details: dose 2-8 µM
[31] = system: T-24; experiment: Induction of apoptosis in human T24 cells assessed as increase in cleaved caspase-3 level at 2 to 8 uM incubated for 24 hrs by Western blot analysis; format: functional, cell-based; details: dose 2-8 µM
[32] = system: T-24; experiment: Antitumor activity against human T24 cells assessed as effect on PI3K-AKT signaling pathway at 5 uM incubated for 24 hrs by TMT/iTRAQ analysis; format: functional, cell-based
[33] = system: T-24; experiment: Induction of autophagy in human T24 cells assessed as appearance of autophagic vesicles at 5 uM incubated for 48 hrs by TEM analysis; format: functional, cell-based
[34] = system: T-24; experiment: Downregulation of pAKT1 at S473 level in human T24 cells at 2 to 8 uM incubated for 24 hrs by Western blot analysis; format: functional, cell-based; details: dose 2-8 µM
[35] = system: T-24; experiment: Induction of ferroptosis in human T24 cells at 5 uM incubated for 24 hrs by KEGG analysis; format: functional, cell-based
[36] = system: T-24; experiment: Induction of ferroptosis in human T24 cells assessed as smaller mitochondria at 5 uM incubated for 24 hrs by TEM analysis; format: functional, cell-based
[37] = system: T-24; experiment: Induction of ferroptosis in human T24 cells assessed as increase in iron level at 5 uM incubated for 24 hrs in presence of DFO by FerrOrange probe based confocal microscopy; format: functional, cell-based
[38] = system: T-24; experiment: Induction of ferroptosis in human T24 cells assessed as increase in mitochondrial membrane density at 5 uM incubated for 24 hrs by TEM analysis; format: functional, cell-based
[39] = system: T-24; experiment: Induction of ferroptosis in human T24 cells assessed as decrease in GPX4 level at 5 uM incubated for 24 hrs by Western blot analysis; format: functional, cell-based
[40] = Toxicity in nude mouse model xenografted with human T24 cells assessed as pathological change in liver at 15 mg/kg, ip administered once every two days for 21 days; format: organism-based, T-24; details: in vivo, 504 h, time 21 day
[41] = system: HepG2; experiment: Antiproliferative activity against human HepG2 cells xenografted in nude mouse model assessed as tumor inhibition rate at 15 mg/kg, ip administered once every two days for 21 days relative to control; format: functional; details: HepG2, 504 h, time 21 day
[42] = system: T-24; experiment: Induction of ferroptosis in human T24 cells assessed as ruptured mitochondria at 5 uM incubated for 24 hrs by TEM analysis; format: functional, cell-based
[43] = system: T-24; experiment: Antitumor activity against human T24 cells assessed as effect on ferroptosis signaling pathway at 5 uM incubated for 24 hrs by TMT/iTRAQ analysis; format: functional, cell-based

CN(C)CCN1C(=O)c2cccc3c(N4CCN(C(=S)SCc5ccccc5)CC4)ccc(c23)C1=O
Activity [1]: Active | Activity [2]: 30.58% | Activity [3]: Non-Toxic | Activity [4]: Active | Activity [5]: Active | Activity [6]: Dose-Dependent Effect | IC50 [7]: 3.6 µM | Activity [8]: Active | Activity [9]: Active | Activity [10]: Non-Toxic | IC50 [11]: 1.43 µM | Activity [12]: Active | Activity [13]: Active | Activity [14]: Dose-Dependent Effect | inhibition [15]: Active | Activity [16]: Active | Activity [17]: Active | Activity [18]: Non-Toxic | Activity [19]: Active | IC50 [20]: 3.03 µM | Activity [21]: Active | Activity [22]: Active | IC50 [23]: 14.9 µM | Activity [24]: inactive | Activity [25]: 18.36% | Activity [26]: 20.7% | Activity [27]: Active | Activity [28]: Non-Toxic | Activity [29]: Non-Toxic | Activity [30]: Dose-Dependent Effect | Activity [31]: Active | Activity [32]: Active | Activity [33]: Active | Activity [34]: Active | Activity [35]: Active | Activity [36]: Active | Activity [37]: inactive | Activity [38]: Active | Activity [39]: Active | Activity [40]: Non-Toxic | inhibition in vivo at 15 mg/kg [41]: 50% | Activity [42]: Active | Activity [43]: Active
